From US20240398781A1, “SPIROCYCLIC CYCLIC MODULATORS OF CHOLESTEROL BIOSYNTHESIS AND THEIR USE FOR PROMOTING REMYELINATION” (GENENTECH, INC., priority 2021, published 2024)

Legend:
[1] = system: EBP (zymostenol accumulation in EpiSC-derived OPCs); test: GC/MS-based sterol profiling, zymostenol accumulation in OPCs; assay type: cell-based, mouse; details: Mus musculus, 24 h, EpiSC-derived OPCs, 24 hr treatment, 8 doses from 0.15 nM to 333 nM; read-out: Zymostenol GCMS EC50
Method: To assess effects of treatments on OPCs, all treatments were assayed in two or more independent platings of epiblast stem cell-derived OPCs ([…]-derived OPCs were obtained using in vitro differentiation protocols and culture conditions described previously (Najm et al, 2011, Nature Methods). OPCs were expanded and frozen down in aliquots. OPCs were thawed into growth conditions for at least one passage before use in further assays. Sterols were monitored using a modified Folch wash protocol (Hubler et al, 2018, Nature). EpiSC-derived OPCs were plated at 100,000 cells per well in PO- and laminin-coated 96-well plates in N2B27 media without growth factors. After 24 hours, cells were rinsed with saline and plates were frozen. Cholesterol-d7 standard was then added to each well before drying under nitrogen stream and derivatization with 55 μl of bis(trimethylsilyl) trifluoroacetamide. After derivatization, 2 μl were analyzed by gas chromatography/mass spectrometry using an Agilent 5973 Network Mass Selective Detector equipped with a 6890 gas chromatograph system and a HP-5MS capillary column (30 m×0.25 mm×0.25 mm). Samples were analyzed in full scan mode using electron impact ionization; ion fragment peaks were integrated to calculate sterol abundance, and quantitation was relative to cholesterol-d7. […] All standards were obtained from Avanti Polar Lipids unless otherwise indicated. Calibration curves were generated by injecting varying concentrations of sterol standards and maintaining a fixed amount of cholesterol-D7. For normalized zymostenol accumulation results, the total amount of zymostenol measured after drug treatment was divided by the total amount of zymostenol accumulated after 24 hr treatment with 100 nM positive control reference.

EpiSC-derived OPCs = test: In vitro phenotypic screening of OPCs (MBP staining, high-content imaging); assay type: cell-based, mouse; details: Mus musculus, 72 h, percentage of MBP+ oligodendrocytes, 3 days, 0.5 nM to 1000 nM; read-out: OPC EC50
Method: To assess effects of treatments on OPCs, all treatments were assayed in two or more independent platings of epiblast stem cell-derived OPCs (EpiSC). EpiSC-derived OPCs were obtained using in vitro differentiation protocols and culture conditions described previously (Najm et al, 2011, Nature Methods). OPCs were expanded and frozen down in aliquots. OPCs were thawed into growth conditions for at least one passage before use in further assays.
EpiSC-derived OPCs were grown and expanded in poly-L-ornithine (PO) and laminin-coated flasks in N2B27 media (DMEM/F12 (Gibco), N2-MAX (R&D Systems), B-27 (ThermoFisher), and GlutaMax (Gibco)) supplemented with FGF2 ([…], R&D systems, 233-FB-025) and PDGF-AA ([…], R&D systems, 233-AA-050) before harvesting for experiments. The cells were seeded onto poly-L-ornithine or poly-D-lysine coated CellCarrier Ultra plates (PerkinElmer) coated with laminin (Sigma, L2020) at a density of 150,000/cm^2 in N2B27 media without growth factors. For dose-response testing, a 1000× compound stock in dimethyl sulphoxide (DMSO) was added to assay plates, resulting in 8-point dose curves with final concentrations between 1000 nM and 0.5 nM. Positive controls and DMSO vehicle controls were included in each assay plate. Cells were incubated under standard conditions (37° C., 5% CO2) for 3 days and fixed with 4% paraformaldehyde (PFA) in phosphate buffered saline (PBS) for 20 min. Fixed plates were washed with PBS, permeabilized with 0.1% Triton X-100, and blocked with 10% donkey serum (v/v) in PBS for 40 min. Then, cells were labelled with MBP antibodies (Abcam, ab7349; 1:200) for 2 h at room temperature, washed with PBS, and stained with Alexa Fluor conjugated secondary antibodies (1:500) for 45 min. Nuclei were visualized by DAPI staining (Sigma; 1 μg/ml), followed by further PBS washes.
Cells and cell culture plates were imaged on the Operetta High Content Imaging and Analysis system (PerkinElmer). Analysis (PerkinElmer Harmony and Columbus software) began by identifying intact nuclei stained by DAPI. The peri-nuclear region of each cell was then cross-referenced with the mature myelin protein (MBP) stain to identify oligodendrocyte nuclei, and from this the percentage of oligodendrocytes was calculated. EC50 values were calculated using The Levenberg-Marquardt algorithm to fit a Hill equation to dose-response data (0.5 nM to 1000 nM).

[2] = biological target: human emopamil binding protein and human 7-dehydrocholesterol reductase co-expressing cells (hEBP-DHCR7 membrane) (Homo sapiens (Human), UniProt Q15125); test: Radioligand filter binding assay on hEBP-DHCR7 membrane; details: [3H]-(S)-6-(2-Methyl-3-(6-(trifluoromethyl)pyridin-3-yl)propyl)-2-thia-6-azaspiro[3.4]octane 2,2-dioxide radioligand, HEK293 membrane co-expressing hEBP and hDHCR7
Method: Membrane Preparation: human emopamil binding protein and human 7-dehydrocholesterol reductase co-expressing cells were generated by transient transfecting host human embryonic kidney (HEK) 293 cells with 2 DNA constructs containing each protein's coding sequence. Cells were suspension cultured at 37° C. with 5% CO2 in […] 293 Expression Medium (Thermofisher). Whole cell membrane was prepared by harvesting the cell pellet, adding cold membrane buffer (50 mM Tris, pH7.5, lx Roche COMPLETE EDTA-free protease inhibitor cocktail) 10 times volume of the cell pellets weight, lysing cell pellet on ice by using Dounce homogenizer, spinning at 200 g 4° C. for 15 min, collecting supernatant and spinning again at 25000 g 4° C. for 50 min, transferring pellet to Dounce homogenizer, re-suspending pellet by homogenizing in membrane buffer on ice to reach ˜25 mg/mL, then keeping whole cell membrane aliquots at −80° C.
Compounds were prepared in a 96-well U bottom plate using an Echo550 machine and 10 mM compound DMSO stock solution, followed by an 8-dose 5-fold serial dilutions protocol with final testing compound concentration ranging from 0.06 to 5000 nM, with DMSO back fill to 100 nL/well and n=2. […] The UniFilter-96 GF/B plates were pre-treated by adding 50 μl/well of 0.3% (v/v) PEI to UniFilter-96 GF/B plates. The plates were sealed and incubated at 4° C. for 3 hrs. Then, the plates were washed with ice-cold assay buffer 3 times. The radioligand binding assay was prepared by adding assay buffer diluted hEBP-DHCR7 membrane at 66.7 μg/ml×150 μl/well into the 96-well compound plate to reach 10 μg membrane per well. Then, the assay buffer diluted [3H]—(S)-6-(2-Methyl-3-(6-(trifluoromethyl)pyridin-3-yl)propyl)-2-thia-6-azaspiro[3.4] octane 2,2-dioxide was added at 25 nM×50 μl/well. Following this, the plate was centrifuged at 1000 rpm for 30 secs. The plate was then sealed and agitated at 600 rpm at 22° C. for 5 min, and then incubated at 22° C. for 3 hrs. The incubation was stopped by transferring the binding solution to the pre-treated UniFilter-96 GF/B plate, vacuum filtrated, and then washed four times with ice-cold assay buffer. Following this, the plates were dried at 37° C. for 45 min. The plates were then sealed at the bottom. 40 μl/well of scintillation cocktail was added to the plates. A MicroBeta2 microplate counter was then used to read the plate and analyze the data. For reference and test compounds, the results are expressed as % Inhibition, using the normalization equation: N=100−100×(U−C2)/(C1−C2), where U is the unknown value, C1 is the average of high controls, and C2 is the average value of low controls. The IC50 was determined by fitting percentage of inhibition as a function of compound concentrations with Hill equation using XLfit. Results are expressed as hEBP-DHCR7 Ki (uM) in Table 4. Ki was calculated as described above. The asterix (*) indicates an isolated isomer or isolated group of isomers, but that the stereochemistry has not been assigned.

Chain of human emopamil binding protein and human 7-dehydrocholesterol reductase co-expressing cells (hEBP-DHCR7 membrane) (Q15125 whole entry): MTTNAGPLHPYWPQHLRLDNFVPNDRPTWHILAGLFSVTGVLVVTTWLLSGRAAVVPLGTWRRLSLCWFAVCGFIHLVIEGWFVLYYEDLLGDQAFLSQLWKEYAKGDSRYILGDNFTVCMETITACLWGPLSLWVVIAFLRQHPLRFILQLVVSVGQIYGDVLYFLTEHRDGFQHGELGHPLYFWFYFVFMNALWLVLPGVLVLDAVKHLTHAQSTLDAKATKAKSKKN

Row | SMILES | EC50 [1] [nM] | EC50 (EpiSC-derived OPCs) [nM] | Ki [2] [nM]
1 | O=S1(=O)CC[C@@]2(CCCN([C@H]3CC[C@@H](c4ccc(C(F)(F)F)nc4)CC3)C2)C1 (single isomer, unassigned) [71A*] | 6 | 19 | –
2 | O=S1(=O)CC2(CCN([C@H]3CC[C@H](c4cncc(C(F)(F)F)c4)CC3)C2)C1 [Compound 63A, 6-((1r,4r)-4-(5-(trifluoromethyl)pyridin-3-yl)cyclohexyl)-2-thia-6-azaspiro[3.4]octane 2,2-dioxide] | 12 | – | 75
3 | O=S1(=O)CC2(CCN([C@H]3CC[C@@H](c4cncc(C(F)(F)F)c4)CC3)C2)C1 [Compound 63B, 6-((1s,4s)-4-(5-(trifluoromethyl)pyridin-3-yl)cyclohexyl)-2-thia-6-azaspiro[3.4]octane 2,2-dioxide] | 289 | – | 66
4 | O=S1(=O)CC2(CCN([C@H]3CC[C@H](c4ccc(C(F)F)nc4)CC3)C2)C1 [Compound 67, 6-((1r,4r)-4-(6-(difluoromethyl)pyridin-3-yl)cyclohexyl)-2-thia-6-azaspiro[3.4]octane 2,2-dioxide] | 30 | – | 180
5 | O=S1(=O)CC2(CCN([C@H]3CC[C@@H](c4ccc(F)c(F)c4)CC3)C2)C1 [Compound 70B, 6-((1s,4s)-4-(3,4-difluorophenyl)cyclohexyl)-2-thia-6-azaspiro[3.4]octane 2,2-dioxide] | 19 | – | 6.7
6 | O=S1(=O)CC2(CCN([C@H]3CC[C@H](c4ncc(C(F)(F)F)cc4F)CC3)CC2)C1 [Compound 80A, 7-((1r,4r)-4-(3-Fluoro-5-(trifluoromethyl)pyridin-2-yl)cyclohexyl)-2-thia-7-azaspiro[3.5] nonane 2,2-dioxide] | 11 | – | 67
7 | CC(C)(C)n1nc(C(F)(F)F)cc1[C@H]1CC[C@H](N2CCC3(CC2)CS(=O)(=O)C3)CC1 [Compound 85A, 7-((1r,4r)-4-(1-(tert-Butyl)-3-(trifluoromethyl)-1H-pyrazol-5-yl)cyclohexyl)-2-thia-7-azaspiro[3.5]nonane 2,2-dioxide] | 8.1 | – | 15
8 | O=S1(=O)CC2(CCN([C@H]3CC[C@H](c4ccnc(C(F)(F)F)c4)CC3)CC2)C1 [Compound 90B, 7-((1r,4r)-4-(2-(trifluoromethyl)pyridin-4-yl)cyclohexyl)-2-thia-7-azaspiro[3.5]nonane 2,2-dioxide] | 42 | – | 1290
9 | O=S1(=O)CC2(CCN([C@H]3CC[C@H](c4cnc(C(F)(F)F)nc4)CC3)C2)C1 [Compound 94A, 6-((1r,4r)-4-(2-(Trifluoromethyl)pyrimidin-5-yl)cyclohexyl)-2-thia-6-azaspiro[3.4]octane 2,2-dioxide] | 81 | – | 230

Other lines, results leading:

Row | EC50 [1] [nM] | EC50 (EpiSC-derived OPCs) [nM] | Ki [2] [nM] | SMILES
10 | 5.9 | – | 14 | Cc1nc(C(F)(F)F)ccc1[C@H]1CC[C@@H](N2CCC3(C2)CS(=O)(=O)C3)CC1 [Compound 51B, 6-((1s,4s)-4-(2-methyl-6-(trifluoromethyl)pyridin-3-yl)cyclohexyl)-2-thia-6-azaspiro[3.4]octane 2,2-dioxide]
11 | 85 | – | 21 | O=S1(=O)CC2(CCN([C@H]3CC[C@@H](c4ccnc(C(F)(F)F)c4)CC3)C2)C1 [Compound 60B, 6-((1s,4s)-4-(2-(trifluoromethyl)pyridin-4-yl)cyclohexyl)-2-thia-6-azaspiro[3.4]octane 2,2-dioxide]
12 | 45 | – | 23 | O=S1(=O)CC2(CCN([C@H]3CC[C@@H](c4cccc(C(F)(F)F)n4)CC3)C2)C1 [Compound 62A, 6-((1s,4s)-4-(6-(trifluoromethyl)pyridin-2-yl)cyclohexyl)-2-thia-6-azaspiro[3.4]octane 2,2-dioxide]
13 | 3.2 | – | 12 | CCc1nc(C(F)(F)F)ccc1[C@H]1CC[C@@H](N2CCC3(C2)CS(=O)(=O)C3)CC1 [Compound 64B, 6-((1s,4s)-4-(2-ethyl-6-(trifluoromethyl)pyridin-3-yl)cyclohexyl)-2-thia-6-azaspiro[3.4]octane 2,2-dioxide]
14 | 2.8 | – | 8 | CC(C)c1nc(C(F)(F)F)ccc1[C@H]1CC[C@@H](N2CCC3(C2)CS(=O)(=O)C3)CC1 [Compound 65B, 6-((1s,4s)-4-(2-isopropyl-6-(trifluoromethyl)pyridin-3-yl)cyclohexyl)-2-thia-6-azaspiro[3.4]octane 2,2-dioxide]
15 | 59 | – | 26 | O=S1(=O)CC2(CCN([C@H]3CC[C@@H](c4cnc(C(F)(F)F)c(F)c4)CC3)C2)C1 [Compound 72B, 6-((1s,4s)-4-(5-fluoro-6-(trifluoromethyl)pyridin-3-yl)cyclohexyl)-2-thia-6-azaspiro[3.4]octane 2,2-dioxide]
16 | 250 | – | 115 | O=S1(=O)CC2(CCN([C@H]3CC[C@@H](c4cnc(C(F)(F)F)nc4)CC3)C2)C1 [Compound 94B, 6-((1s,4s)-4-(2-(trifluoromethyl)pyrimidin-5-yl)cyclohexyl)-2-thia-6-azaspiro[3.4]octane 2,2-dioxide]
